Test results taken from patent US8247211B2, “Glycopeptide antibiotics” (American Cyanamid Company, priority 2001, dated 2012).

Assays:
[1] = system: Staphylococcus aureus-SMITH (GC 4543); test: Acute lethal infection in mice (ED50); format: in vivo; conditions: female CD-1 mice, intraperitoneal challenge, intravenous dose 30 min. after infection, 7 day survival ratios
How it was run: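 Groups of five female CD-1 mice per dose got intravenous antibiotic in saline or 5% dextrose half an hour after intraperitoneal infection sufficient to kill controls within 24-48 hr. Seven-day survival data from three experiments were combined to derive ED50.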

Enterococcus sp. = test: In vitro antibacterial evaluation: minimum inhibitory concentration (MIC), broth dilution method; format: cell-based
How it was run: (§1)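 An MIC is reported for each organism as the least concentration giving inhibition, using broth dilution over 64-0.06 μg/mL with a 5×10^5 CFU/mL inoculum.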

Staphylococcus sp. = test: as above; format: cell-based; conditions: broth dilution, 18 hours at 35° C.
How it was run: as §1

Escherichia coli = test: as above; format: cell-based
How it was run: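 Using Muller-Hinton II […] and an inoculum of 5×10^5 CFU/mL, antibiotic dilutions from 64 down to 0.06 μg/mL were tested following NCCLS M7-A2. The MIC is the lowest concentration inhibiting growth, including in methicillin-, penicillin- or vancomycin-resistant clinical isolates.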

Streptococcus sp. = test: as above; format: cell-based
How it was run: as §1

[2] = broth dilution, inoculum 5×10^5 CFU/mL, 18 hours at 35° C.

CC(c1ccccc1)C1NC(=O)CNC(=O)C(CO)NC(=O)C(C(O)C2CNC(=N)N2C2OC(CO)C(O)C(O)C2O)NC(=O)C(C(O)C2CNC(=N)N2)NC(=O)C(Cc2ccc(OC3OC(CO)C(OC4OC5COC(c6cc7c(cc6Cl)OCO7)OC5C(O)C4O)C(O)C3O)cc2)NC1=O (stereo not drawn) [Example 158, Cyclo[glycyl-β-methylphenylalanyl-O-[4-O-[4,6-O-[(6-chloro-1,3-benzodioxol-5-yl)-methylene]hexopyranosyl]hexopyranosyl]tyrosyl-3-(2-iminoimidazolidin-4-yl)seryl-3-(3-hexopyranosyl-2-iminoimidazolidin-4-yl)serylseryl]]
8 µg/mL: MIC Enterococcus faecalis (GC 4552) (Enterococcus sp.; [2]) | MIC Enterococcus faecium (GC 4556) (Enterococcus sp.; [2]) | MIC Enterococcus faecalis (GC 4552) (Enterococcus sp.; strain GC 4552) | MIC Enterococcus faecium (GC 4556) (Enterococcus sp.; strain GC 4556)
0.12 µg/mL: MIC Streptococcus pneumoniae (ATCC 6301) (Streptococcus sp.; strain ATCC 6301)
0.25 µg/mL: MIC Streptococcus pyogenes (GC 4563) (Streptococcus sp.; strain GC 4563) | MIC Streptococcus agalactiae (GC 4564) (Streptococcus sp.; strain GC 4564)
64 µg/mL: MIC Escherichia coli (ATCC 25922) (Escherichia coli; strain ATCC 25922) | MIC Escherichia coli (GC 4559) (Escherichia coli; strain GC 4559)
4 µg/mL: MIC Enterococcus avium (GC 4558) (Enterococcus sp.; [2]) | MIC Enterococcus faecalis (ATCC 29212) (Enterococcus sp.; [2]) | MIC Enterococcus faecalis (GC 4553) (Enterococcus sp.; [2]) | MIC Enterococcus faecalis (GC 4554) (Enterococcus sp.; [2]) | MIC Enterococcus faecalis (GC 6189) (Enterococcus sp.; [2]) | MIC Enterococcus faecium (GC 2243) (Enterococcus sp.; [2]) | MIC Enterococcus faecalis (ATCC 29212) (Enterococcus sp.; strain ATCC 29212) | MIC Enterococcus faecalis (GC 2242) (Enterococcus sp.; strain GC 2242) | MIC Enterococcus faecium (GC 2243) (Enterococcus sp.; strain GC 2243) | MIC Enterococcus faecalis (GC 2691) (Enterococcus sp.; strain GC 2691) | MIC Enterococcus faecalis (GC 3059) (Enterococcus sp.; strain GC 3059) | MIC Enterococcus faecalis (GC 4553) (Enterococcus sp.; strain GC 4553) | MIC Enterococcus faecalis (GC 4554) (Enterococcus sp.; strain GC 4554) | MIC Enterococcus avium (GC 4558) (Enterococcus sp.; strain GC 4558) | MIC Enterococcus faecalis (GC 6189) (Enterococcus sp.; strain GC 6189)
0.5 µg/mL: MIC Staphylococcus haemolyticus (GC 4546) (Staphylococcus sp.; 5×10^5 CFU/mL) | MIC Staphylococcus haemolyticus (GC 4546) (Staphylococcus sp.; strain GC 4546)
<0.06 µg/mL: MIC Streptococcus pneumoniae (GC 1894) (Streptococcus sp.; strain GC 1894) | MIC Streptococcus pneumoniae (GC 4565) (Streptococcus sp.; strain GC 4565)
2 µg/mL: MIC Enterococcus faecium (GC 4557) (Enterococcus sp.; [2]) | MIC Enterococcus faecium (GC 4557) (Enterococcus sp.; strain GC 4557) | MIC Coagulase Negative Staphylococcus (GC 4547) (Staphylococcus sp.; 5×10^5 CFU/mL) | MIC Coagulase Negative Staphylococcus (GC 4551) (Staphylococcus sp.; 5×10^5 CFU/mL) | MIC Staphylococcus aureus (ATCC 29213) (Staphylococcus sp.; 5×10^5 CFU/mL) | MIC Staphylococcus aureus (GC 1131) (Staphylococcus sp.; 5×10^5 CFU/mL) | MIC Staphylococcus aureus (GC 3053) (Staphylococcus sp.; 5×10^5 CFU/mL) | MIC Staphylococcus aureus (GC 4544) (Staphylococcus sp.; 5×10^5 CFU/mL) | MIC Staphylococcus aureus (GC 4545) (Staphylococcus sp.; 5×10^5 CFU/mL) | MIC Staphylococcus aureus-SMITH (GC 4543) (Staphylococcus sp.; 5×10^5 CFU/mL) | MIC Staphylococcus aureus (ATCC 29213) (Staphylococcus sp.; strain ATCC 29213) | MIC Staphylococcus aureus (GC 1131) (Staphylococcus sp.; strain GC 1131) | MIC Staphylococcus aureus (GC 3053) (Staphylococcus sp.; strain GC 3053) | MIC Staphylococcus aureus-SMITH (GC 4543) (Staphylococcus sp.; strain GC 4543) | MIC Staphylococcus aureus (GC 4544) (Staphylococcus sp.; strain GC 4544) | MIC Staphylococcus aureus (GC 4545) (Staphylococcus sp.; strain GC 4545) | MIC Coagulase Negative Staphylococcus (GC 4547) (Staphylococcus sp.; strain GC 4547) | MIC Coagulase Negative Staphylococcus (GC 4551) (Staphylococcus sp.; strain GC 4551)
0.14 mg/kg: median effective dose (ED50), Staphylococcus aureus-SMITH (GC 4543) [1]
1 µg/mL: MIC Coagulase Negative Staphylococcus (GC 4548) (Staphylococcus sp.; 5×10^5 CFU/mL) | MIC Coagulase Negative Staphylococcus (GC 4549) (Staphylococcus sp.; 5×10^5 CFU/mL) | MIC Coagulase Negative Staphylococcus (GC 6257) (Staphylococcus sp.; 5×10^5 CFU/mL) | MIC Staphylococcus aureus (GC 3051) (Staphylococcus sp.; 5×10^5 CFU/mL) | MIC Staphylococcus aureus (GC 4541) (Staphylococcus sp.; 5×10^5 CFU/mL) | MIC Staphylococcus aureus (GC 4542) (Staphylococcus sp.; 5×10^5 CFU/mL) | MIC Staphylococcus aureus (GC 3051) (Staphylococcus sp.; strain GC 3051) | MIC Staphylococcus aureus (GC 4541) (Staphylococcus sp.; strain GC 4541) | MIC Staphylococcus aureus (GC 4542) (Staphylococcus sp.; strain GC 4542) | MIC Coagulase Negative Staphylococcus (GC 4548) (Staphylococcus sp.; strain GC 4548) | MIC Coagulase Negative Staphylococcus (GC 4549) (Staphylococcus sp.; strain GC 4549) | MIC Coagulase Negative Staphylococcus (GC 6257) (Staphylococcus sp.; strain GC 6257) | MIC Escherichi coli (GC 4560) (Escherichia coli; strain GC 4560)
